Results on eleven compounds are retold here after patent publication US11186640B2, “Method for the identification of immunotherapy-drug combinations using a network approach” (THE UNIVERSITY OF WESTERN AUSTRALIA, priority 2014, dated 2021).

For series [1], the system named is Renca kidney cancer cells. In kind it is in vivo, BALB/c mice.
The test system of series [2] is AB1-HA mesothelioma. In words: in vivo co-treatment with anti-CTLA-4 in AB1-HA tumour bearing mice. More on the design: species or system BALB/c mice. As to conditions: for anti-tumour response / response rate to anti-CTLA-4 on co-treatment: drug in combination with anti-CTLA-4.
Another series relates to Line-1 lung cancer cells. As to the kind of experiment: in vivo co-treatment with anti-CTLA4 in Line-1 lung cancer model. Also on record: species or system BALB/c mice.
Series [3] has as its system AB1-HA mesothelioma. As to the kind of experiment: in vivo co-treatment with anti-GITR in AB1-HA tumour bearing mice. As to conditions: drug in combination with anti-GITR. Also on record: species or system BALB/c mice.
For series [4] the following is noted: mouse, in vivo, ip, 400 mg/kg.
For series [5] the following is noted: mice, i.p. administration; cited from earlier work.
Another series concerns melanoma. As to conditions: melanoma patients after ipilimumab; cited from earlier work.

Entries after “also recorded” stand apart in the source; their conditions may differ. Where two headings read alike, the source gives them in different places.

On to `CC1=C(/C=C/C(C)=C/C=C/C(C)=C/C(=O)O)C(C)(C)CCC1` [ATRA, All-trans Retinoic Acid], for which the “survival / clinical efficacy of CTLA4 blockade on co-treatment” value in series [1] (mouse, in vivo) was “improve the clinical efficacy; also recorded: improved survival”. Besides, in the series with AB1-HA mesothelioma [2], the “anti-tumour response / response rate to anti-CTLA-4 on co-treatment” value (from here on “anti-tumour response / response rate”) is given as “clear effect; also recorded: increased anti-tumour response”.
`O=S(=O)(c1cccc2cnccc12)N1CCCNCC1` [Fasudil]: in the series with AB1-HA mesothelioma [2] (drug alone), the growth delay entry is “did not result in any growth delay”. In addition, the “anti-tumour response / response rate” value in the series with AB1-HA mesothelioma [2] is recorded as “increased the response rate”.
For `O=[N+]([O-])O[C@H]1CO[C@H]2[C@@H]1OC[C@H]2O[N+](=O)[O-]` [ISDN, Isosorbide dinitrate], the “complete regression / clinical efficacy of CTLA4 blockade on co-treatment” value in the series with Line-1 lung cancer cells (drug in combination with anti-CTLA4) is listed as “improve the clinical efficacy; also recorded: complete regression in a substantial proportion of mice”. The complete regression entry in the series on Line-1 lung cancer cells (either treatment alone) was “not observed”. Also, in series [1] (Renca kidney cancer, drug in combination with anti-CTLA4), the “survival / clinical efficacy of CTLA4 blockade on co-treatment” value is listed as “improve the clinical efficacy; also recorded: improved survival”. Besides, in the series with AB1-HA mesothelioma [3], the “survival / efficacy of checkpoint blockade with anti-GITR on co-treatment” value is “could equally be improved; also recorded: improved survival”. Also, the “anti-tumour response / response rate” value with AB1-HA mesothelioma [2] was “increase the therapeutic efficacy; also recorded: increased the response rate”.
Regarding `CCOC(=O)N1CCN(/[N+]([O-])=N/Oc2ccc([N+](=O)[O-])cc2[N+](=O)[O-])CC1` [JS-K], the “anti-tumour response / response rate” value with AB1-HA mesothelioma [2] is “improves the clinical benefit”.
Consider `NC(=NCCC[C@H](N)C(=O)O)N[N+](=O)[O-]` [L-NNA], for which the “anti-tumour response / response rate” value in the series with AB1-HA mesothelioma [2] was “diminished; also recorded: abrogated the anti-tumour effect”.
On to `Cc1cc(Nc2cc(N3CCN(C)CC3)nc(Sc3ccc(NC(=O)C4CC4)cc3)n2)n[nH]1` [VX-680], for which, in the series on AB1-HA mesothelioma [2], the “anti-tumour response / response rate” value is recorded as “significantly increased”.
Still for that read-out and setting: as for `CN1CC[C@H](c2c(O)cc(O)c3c(=O)cc(-c4ccccc4Cl)oc23)[C@H](O)C1` [flavopiridol], the entry is “increased the response rate”; as for `COc1c2c(cc3c1OCO3)CCN(C)C2` [hydrocotarnine], “increased anti-tumour response”.
On to `Cc1cc2c(cc1S(N)(=O)=O)S(=O)(=O)CCC2` [meticrane], for which the clinical signs result in series [4] is “slightly ruffled”. The median lethal dose (LD50) (in general, the dose expected to kill half of the subjects tested) in series [5] was 10000 mg/kg. Besides, the “anti-tumour response / response rate” value with AB1-HA mesothelioma [2] is reported as “clear effect; also recorded: increased anti-tumour response”.
In the case of `Cc1ncc(CO)c(CO)c1O` [pyridoxine], the “anti-tumour response / response rate” value in the series with AB1-HA mesothelioma [2] is “clear effect; also recorded: increased anti-tumour response”.
For ipilimumab, the 7-year survival in the series with melanoma is 17%.
